Assay results: patent US7230139B2, “Diterpenoid compounds, compositions thereof and their use as anti-cancer or anti-fungal agents” (priority 2004, dated 2007)

Assays:
[1] = system: A549 human non-small cell lung carcinoma; test: Cell viability, cellular ATP levels (Vialight HS); type: cell-based; conditions: Table 5, A549, NSCL-adrenocarinoma, tumor, ATP levels 72 h post-treatment
Excerpt: (§1) The following cell lines were used: A549 human non-small cell lung carcinoma; C33A human cervical carcinoma; H1299 human non-small cell lung carcinoma; Hep-3B human hepatocellular carcinoma; MIA-Paca-2 human pancreatic carcinoma; PC-3 human prostatic adenocarcinoma (American Type Culture Collection, Manassas, Va., USA); HMEC normal human mammary epithelial cells; HUVEC normal human umbilical vein endothelial cells; and NHBE normal human bronchial epithelial cells (Cambrex Bio Science, Rockland, Me., USA). […] HMEC, HUVEC and NHBE cell lines were cultured in MEGM, EGM-2 and BEGM media, respectively (Cambrex Bio Science, Rockland, Me., USA). The cell lines were plated in 96-well microtitre plate at a density of 2–4×10^3 cells per well. After 16 hours, the cells were treated with various concentrations of Compound 50a or Compound 50b. Stock solutions of Compound 50a and Compound 50b, respectively, were prepared in dimethyl sulfoxide at a concentration of 5 mM. Serial dilutions were prepared in RPMI, 10% FBS and 2% DMSO and then added to the cells. The total DMSO in the cell cultures was 1%. […] The IC50s were determined using a best-fit sigmoidal dose response curve with variable slope.

[2] = system: HMEC normal human mammary epithelial cells; test: Cell viability, cellular ATP levels (Vialight HS); type: cell-based; conditions: Table 5, breast epithelial, ATP levels 72 h post-treatment
Excerpt: as §1

[3] = system: HUVEC normal human umbilical vein endothelial cells; test: Cell viability, cellular ATP levels (Vialight HS); type: cell-based; conditions: Table 5, ATP levels 72 h post-treatment
Excerpt: as §1

[4] = system: Hep-3B human hepatocellular carcinoma; test: Cell viability, cellular ATP levels (Vialight HS); type: cell-based; conditions: Hep3B, Table 5, liver, tumor, ATP levels 72 h post-treatment
Excerpt: as §1

[5] = system: MIA-Paca-2 human pancreatic carcinoma; test: Cell viability, cellular ATP levels (Vialight HS); type: cell-based; conditions: Table 5, MIA-Paca-2, pancreas, tumor, ATP levels 72 h post-treatment
Excerpt: as §1

[6] = system: NHBE normal human bronchial epithelial cells; test: Cell viability, cellular ATP levels (Vialight HS); type: cell-based; conditions: Table 5, ATP levels 72 h post-treatment
Excerpt: as §1

[7] = system: PC-3 human prostatic adenocarcinoma; test: Cell viability, cellular ATP levels (Vialight HS); type: cell-based; conditions: Table 5, PC-3, prostate, tumor, ATP levels 72 h post-treatment
Excerpt: as §1

[8] = system: C33A human cervical carcinoma; test: Cell viability, cellular ATP levels (Vialight HS); type: cell-based; conditions: C-33-A, Table 5, C33A, cervix, tumor, ATP levels 72 h post-treatment, read-out: IC50
Excerpt: as §1
(§2) The selected tumor cell lines included C33A human cervical carcinoma and H1299 human non-small cell lung carcinoma (American Type Culture Collection, Manassas, Va., USA). The cell lines were cultured in RPMI 1640 media supplemented with 10% FBS (Hyclone, Logan, Vt., USA), 100 U/mL penicillin, 100 μg/mL streptomycin and 2 mM L-glutamine (Invitrogen, Carlsbad, Calif., USA). The cell lines were plated in 96-well microtitre plate at a density of 2–4×10^3 cells per well. After 16 hours, the cells were treated with various concentrations of compound 66, 67, 68, 69 and 70, respectively. Stock solutions of compounds 66, 67, 68, 69 and 70 were prepared in dimethyl sulfoxide at a concentration of 5 mM. Serial dilutions were prepared in RPMI, 10% FBS and 2% DMSO and then added to the cells. The total DMSO on the cells was 1%. […] The IC50s were determined using a best-fit sigmoidal dose response curve with variable slope.

[9] = system: H1299 human non-small cell lung carcinoma; test: Cell viability, cellular ATP levels (Vialight HS); type: cell-based; conditions: NCI-H1299, Table 5, H1299, NSCL-LC carcinoma, tumor, ATP levels 72 h post-treatment vs untreated cells, read-out: IC50
Excerpt: as §1, §2

[10] = system: SW480 human colon carcinoma cancer cells; test: SW480 colon carcinoma xenograft in SCID mice; type: in vivo, CB17 SCID/SCID female mice; conditions: i.v. 10 mg/kg once a day for five days
Procedure: The resultant mice are a model for a human having colon carcinoma cancer.
The SW480 human colon carcinoma cancer cells were maintained in RPMI supplemented with 10% inactivated fetal bovine serum and 1% penicillin-streptomycin-L-Glutamine, under 5% CO2 at 37° C., and passaged twice a week. The cells were grown at a confluency lower than 70% and then collected with Trypsin (Bio-Whittaker, Md., USA). The cells were then centrifuged and washed twice using phosphate buffered saline solution (PBS) and resuspended in PBS at 1×10^6 cells per 100 μl. Viability was examined by staining with Trypan Blue and only flasks with cell viability of greater than 95% were used for in vivo studies.
(§3) SW480 cells were transplanted subcutaneously into the flank of female CB 17 SCID/SCID mice. Each mouse was inoculated with a suspension of 1×10^6 tumor cells per 100 μL on day zero. The following five treatment groups of ten mice each were used: (a) a negative control group treated with intravenous (i.v.) injection of vehicle, (b) a group treated with i.v. injection of a Compound 50, (c) a group treated with i.v. injection of a Compound 50a, (d) a group treated with i.v. injection of Compound 50b, (e) a group treated with i.v. injection of Compound 74a.
(§4) Treatment started on day twelve after SW480 cells transplantation and Compounds 50, 50a, 50b and 74a were administered i.v. once daily for five consecutive days at a dose of 10, 10, 10 and 50 mg/kg, respectively. Compound 50, 50a and 50b were prepared as a working solution of 1.5 mg/mL in a vehicle solution of 20% Cremaphor EL (Sigma, St. Louis, Miss., USA), and 10% Ethanol. Compound 74a was prepared as a working solution of 5 mg/mL in a vehicle solution of 5% Dextrose (Abbot Laboratories, QC, Canada). The negative control groups were treated with vehicle solution of 20% Cremaphor EL and 10% Ethanol alone.
(§5) The mice were weighed and the tumors measured on day 12 and every 2 to 3 days after treatment commenced. Observations continued for 23 days after initial tumor implantation. The changes in body weight and in the calculated tumor volume were plotted (FIGS. 9 and 10). Statistical analysis was performed using GraphPad Prism (GraphPad Software Inc., San Diego, Calif.). Two-way ANOVA was used to determine how the treatment affected tumor growth over time. Following the two-way ANOVA, post-tests were performed using the Benferroni method to determine the statistical difference between the mean tumor-size of the two groups being compared on every day that the tumors were measured.

[11] = Body weight of SW480 tumor-bearing mice; type: in vivo, CB17 SCID/SCID female mice; conditions: i.v. once daily for five days; 10 mg/kg (50, 50a, 50b), 50 mg/kg (74a)
Procedure: as §3, §4, §5

[12] = Solubility by filtration and LC/MS; type: physicochemical; conditions: in water (printed for Compound 74)
Procedure: To determine whether a compound is soluble in a solution, the solution was filtered on […] polytetrafluoroethylene filters (Whatman Inc. Clifton, N.J., USA) and the compound concentration in the filtrate was measured by LC/MS and compared to the expected concentration. If the concentration of the compound in the filtrate was equal +/−15% to the expected concentration, the compound was judged to be soluble in the solution.
The detection of Compound 74 or Compound 50 by LC/MS was carried out using the HPLC system that consisted of a Waters Alliance quaternary gradient HPLC pump (Waters, Milford, Mass., USA) and a ZQ2000 single quadrupole mass spectrometer (Waters, Milford, Mass., USA). The column used was XTerra MS C18: 50×2.1 mm, […] column at 20° C. Samples were injected and separated under the following conditions: The mobile phase “A” consisted of 5 mM ammonium formate, 0.1% formic acid in water and mobile phase “B” consisted of 5 mM ammonium formate, 0.1% formic acid in methanol. A linear gradient was applied as follows: 0 to 1 min, 94% “A” and 6% “B”; 1 to 4 min, 6% to 100% “B”; 4 to 8 min 100% “B”; 8 to 9 min, 100% “B” to 6% “B”; 9 to 12 min, 94% “A” and 6% “B”. […] Compounds were detected at m/z equal to their respective molecular weight plus 1.

[13] = molecular target: T1, human placental alkaline phosphatase (Homo sapiens, UniProt P05187); test: Conversion of phosphate pro-drug by alkaline phosphatase in vitro; type: in vitro ADME; conditions: 0.02 U/100 μL enzyme, 15 μM pro-drug, pH 7.4, within thirty minutes
T1 construct: purchased Sigma-Aldrich Canada Ltd
Procedure: The conversion into biologically active drug of phosphate pro-drugs by human placental alkaline phosphatase was measured in vitro using purified enzymes. Purified human placental alkaline phosphatase (Sigma-Aldrich Canada Ltd. Oakville, Ontario, Canada) was added at a concentration of 0.02 U/100 μL to a solution containing 15 μM of phosphate pro-drug, 20 mM Tris-HCl, pH 7.4 and 0.9% NaCl. The solutions were incubated for 10, 20 or 30 minutes. A solution containing 15 μM of phosphate pro-drug, 20 mM Tris-HCl, pH 7.4 and 0.9% NaCl was used a reference (time=0 minutes). To each solution, an equal volume (100 μL) of ice-cold acetonitrile was added, and then the mixture was vortexed and transferred to glass vials. A standard concentration curve of the pro-drug and the drug was prepared in 10 mM Tris-HCl, pH 7.4, 0.45% NaCl and 50% acetonitrile. All samples were immediately analyzed by LC/MS.

T1 sequence (P05187 23-506 limits assumed): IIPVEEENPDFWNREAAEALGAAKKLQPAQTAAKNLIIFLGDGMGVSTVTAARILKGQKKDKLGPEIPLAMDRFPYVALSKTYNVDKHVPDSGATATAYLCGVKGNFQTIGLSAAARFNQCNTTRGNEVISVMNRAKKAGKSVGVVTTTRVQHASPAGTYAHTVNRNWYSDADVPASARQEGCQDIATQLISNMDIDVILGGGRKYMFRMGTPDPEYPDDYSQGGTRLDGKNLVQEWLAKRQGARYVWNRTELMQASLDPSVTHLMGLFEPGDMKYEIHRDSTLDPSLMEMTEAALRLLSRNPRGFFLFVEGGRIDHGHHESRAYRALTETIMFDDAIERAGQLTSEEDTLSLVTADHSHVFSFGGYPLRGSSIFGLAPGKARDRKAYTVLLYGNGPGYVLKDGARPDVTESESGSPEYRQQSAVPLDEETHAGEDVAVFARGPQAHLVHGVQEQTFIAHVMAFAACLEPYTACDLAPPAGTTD

Compound `COc1ccc2c(c1)[C@]1(C)C=CC(=O)C(C)(C)C1=C(O)C2=O` [Compound 50b] has an IC50 [1] of 580 nM, an IC50 [2] of 2100 nM and an IC50 [3] of 1300 nM. For the same compound, the IC50 [4] was 770 nM, the IC50 [5] was 250 nM and the IC50 [6] was 1200 nM. For the same compound, the IC50 [7] was 350 nM, the IC50 [8] was 450 nM and the IC50 [9] was 230 nM. The “Tumor growth compared to vehicle” value [10] was “significant reduction (p<0.001)” and the “Change in body weight” value [11] was “non-significant change in body weight”.
In the case of `COc1ccc2c(c1)C1(C)C=CC(=O)C(C)(C)C1=C(OP(=O)(O)O)C2=O` (racemic) [Compound 74], the solubility [12] is reported as no less than 10000 µg/mL and the “Conversion of pro-drug into drug Compound 50” value [13] is reported as “convert a fraction of the pro-drug”.
